What was measured:
HDAC1-Nluc = target: T1, HDAC1-Nluc (Homo sapiens, UniProt Q13547); experiment: Direct-luciferase-detection thermal shift assay, HDAC1-Nluc (Example 7); format: binding; conditions: HeLa cells then digitonin, 10 uL of 1 mM stock per well
T1 construct: NanoLuc luciferase (Nluc); expressed in transfected cells; host or cells: HeLa
Experimental: (§1) The cells were seeded into 96-well tall-chimney PCR plate (Fisherbrand) at a density of 2×10^4 cells/well in a 90 uL/well volume and treated with 10 uL of 10% DMSO (Sigma) or 10 uL of a 1 mM stock solution of test compound in 10% DMSO. […] The plates were placed into a thermal cycler (MW Research) where the samples were heated individually at different temperatures spanning a gradient of 42-66° C. across the plate for 3 minutes followed by cooling at 22° C. for 3 minutes. 100 uL/well was then transferred to a tissue culture plate (Corning), and luminescence was measured on a BMG Clariostar luminometer equipped with a 450 nm BP filter. Data was normalized by relating RLU signals to the RLU of the lowest temperature for the respective sample.

CDK2-Nluc = target: T2, CDK2-Nluc (Homo sapiens, UniProt P24941); experiment: Direct-luciferase-detection thermal shift assay, compound selectivity, CDK2-Nluc (Example 6); format: binding; conditions: HeLa cells then digitonin, 10 uL of 1 mM stock per well
T2 construct: NanoLuc luciferase (Nluc); expressed in transfected cells; host or cells: HeLa
Experimental: as §1, with “HeLa cells were transfected separately with CDK2-Nluc or Nluc-ABL1 DNA at a 1:100 DNA ratio and incubated overnight. […] The cells” for “The cells”, “plates were then incubated for ½ hour in a humidified, 37° C./5% CO2 incubator prior to addition of 10 uL/well of a 0.5 mg/ml solution of digitonin (Sigma) and 10% DMSO (Sigma). The plates were placed into” for “plates were placed into”, “3 minutes. Furimazine Live Cell Substrate (Promega) was added to a final concentration of 1× in 20 uL/well volume. 100 uL/well” for “3 minutes. 100 uL/well”, “respective sample. Data was then fitted to obtain apparent melting temperature where the protein was precipitating (Tagg values) using the Boltzmann Sigmoidal equation with Graphpad Prism software.” for “respective sample.”

Nluc-ABL1 = target: T3, Nluc-ABL1 (Homo sapiens, UniProt P00519); experiment: Direct-luciferase-detection thermal shift assay, compound selectivity, Nluc-ABL1 (Example 6); format: binding; conditions: Nluc-ABL1, HeLa cells then digitonin, 10 uL of 1 mM stock per well
T3 construct: NanoLuc luciferase (Nluc); expressed in transfected cells; host or cells: HeLa
Experimental: as §1, with “HeLa cells were transfected separately with CDK2-Nluc or Nluc-ABL1 DNA at a 1:100 DNA ratio and incubated overnight. […] The cells” for “The cells”, “plates were then incubated for ½ hour in a humidified, 37° C./5% CO2 incubator prior to addition of 10 uL/well of a 0.5 mg/ml solution of digitonin (Sigma) and 10% DMSO (Sigma). The plates were placed into” for “plates were placed into”, “3 minutes. Furimazine Live Cell Substrate (Promega) was added to a final concentration of 1× in 20 uL/well volume. 100 uL/well” for “3 minutes. 100 uL/well”, “respective sample. Data was then fitted to obtain apparent melting temperature where the protein was precipitating (Tagg values) using the Boltzmann Sigmoidal equation with Graphpad Prism software.” for “respective sample.”

[1] = Optical property of dyes in DMSO (Table 1); format: physicochemical; conditions: for Optical Property (in DMSO) Excitation: unit assumed

T1 sequence (Q13547 whole entry): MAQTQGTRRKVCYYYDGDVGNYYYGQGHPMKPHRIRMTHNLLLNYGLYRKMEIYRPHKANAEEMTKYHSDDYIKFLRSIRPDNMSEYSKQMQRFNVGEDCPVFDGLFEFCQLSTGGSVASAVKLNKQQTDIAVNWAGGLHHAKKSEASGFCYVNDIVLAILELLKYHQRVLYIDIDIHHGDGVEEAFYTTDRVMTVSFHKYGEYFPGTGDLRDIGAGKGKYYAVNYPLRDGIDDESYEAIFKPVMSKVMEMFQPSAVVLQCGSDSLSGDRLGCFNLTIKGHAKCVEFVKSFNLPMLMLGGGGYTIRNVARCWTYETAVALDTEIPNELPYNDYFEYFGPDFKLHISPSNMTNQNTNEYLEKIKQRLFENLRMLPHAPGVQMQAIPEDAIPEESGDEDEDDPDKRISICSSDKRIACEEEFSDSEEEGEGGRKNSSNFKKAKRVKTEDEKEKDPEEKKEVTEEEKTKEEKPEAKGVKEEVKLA
T3 sequence (P00519 whole entry): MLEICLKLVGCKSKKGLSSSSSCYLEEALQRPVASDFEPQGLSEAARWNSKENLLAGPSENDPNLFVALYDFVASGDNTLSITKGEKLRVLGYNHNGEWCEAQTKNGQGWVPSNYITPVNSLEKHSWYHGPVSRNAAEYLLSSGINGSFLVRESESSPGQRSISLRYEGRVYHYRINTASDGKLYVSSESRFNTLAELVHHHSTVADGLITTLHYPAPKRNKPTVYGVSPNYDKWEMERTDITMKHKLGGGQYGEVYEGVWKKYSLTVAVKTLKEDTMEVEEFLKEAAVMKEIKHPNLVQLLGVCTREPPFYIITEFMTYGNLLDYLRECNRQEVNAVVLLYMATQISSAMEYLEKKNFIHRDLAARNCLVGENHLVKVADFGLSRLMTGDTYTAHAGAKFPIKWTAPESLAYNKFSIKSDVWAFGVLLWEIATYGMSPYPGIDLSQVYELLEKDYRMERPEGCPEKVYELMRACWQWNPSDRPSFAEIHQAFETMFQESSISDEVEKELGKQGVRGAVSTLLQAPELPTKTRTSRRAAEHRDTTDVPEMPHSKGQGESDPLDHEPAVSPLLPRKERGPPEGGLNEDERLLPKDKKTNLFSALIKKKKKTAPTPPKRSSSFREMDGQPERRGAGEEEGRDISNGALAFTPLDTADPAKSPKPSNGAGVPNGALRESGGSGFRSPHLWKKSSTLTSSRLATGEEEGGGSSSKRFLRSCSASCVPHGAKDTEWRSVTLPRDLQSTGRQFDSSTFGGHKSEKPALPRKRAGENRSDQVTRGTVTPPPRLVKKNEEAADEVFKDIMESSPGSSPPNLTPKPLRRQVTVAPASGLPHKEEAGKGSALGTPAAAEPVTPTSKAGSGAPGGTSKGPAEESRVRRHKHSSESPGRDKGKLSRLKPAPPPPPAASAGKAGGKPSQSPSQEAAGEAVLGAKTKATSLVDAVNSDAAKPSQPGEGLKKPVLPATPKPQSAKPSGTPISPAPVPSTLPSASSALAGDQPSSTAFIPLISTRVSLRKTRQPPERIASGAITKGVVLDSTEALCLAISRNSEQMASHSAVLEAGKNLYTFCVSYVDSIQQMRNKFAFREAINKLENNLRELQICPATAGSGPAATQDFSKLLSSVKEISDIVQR

Optical Property (in DMSO) Emission [1]	Optical Property (in DMSO) Excitation [1]	Compound	shift in melting temperature (apparent Tagg) compared to the controls (HDAC1-Nluc)	shift in apparent Tagg compared to DMSO controls (CDK2-Nluc)	shift in apparent Tagg compared to DMSO controls (Nluc-ABL1)
468 nm	602 nm	CCCCCCN(CCCCCC)c1ccc(/C=C/c2cccc[n+]2CCCS(=O)(=O)[O-])cc1 [CS0020]	–	–	–
462 nm	654 nm	CCCCCCN(CCCCCC)c1ccc(/C=C/c2cc[n+](CCCS(=O)(=O)[O-])cc2)c2ccccc12 [CS0038]	–	–	–
468 nm	620 nm	CCCCCCN(CCCCCC)c1ccc(/C=C/c2cc[n+](CCCC(=O)NCCCS(=O)(=O)[O-])cc2)cc1 [CS0043]	–	–	–
478 nm	620 nm	CCCCCCN(CCCCCC)c1ccc(/C=C/c2cc[n+](CCCC(=O)NCCOCCOCCOCCC(=O)NCCCS(=O)(=O)[O-])cc2)cc1 [CS0048, (E)-21-(4-(4-(Dihexylamino)styryl)pyridin-1-ium-1-yl)-5,18-dioxo-8,11,14-trioxa-4,17-diazahenicos-ane-1-sulfonate]	–	–	–
550 nm	604 nm	CCCCCCN(CCCCCC)c1ccc(/C=C/C2=[N+](C)c3ccccc3C2(C)C)cc1.[I-] [CS0067]	–	–	–
not fluorescent	–	CCCCCCN(CCCCCC)c1ccc(/C=C/c2ccc3c(ccc[n+]3CCCS(=O)(=O)[O-])c2)cc1 [CS0072]	–	–	–
480 nm	620 nm	CCCCCCN(CCCCCC)c1ccc(/C=C/c2cc[n+](CCCC(=O)N(CCCS(=O)(=O)[O-])CCCS(=O)(=O)O)cc2)cc1 [CS0073, (E)-3-(4-(4-(4-(Dihexylamino)styryl)pyridin-1-ium-1-yl)-N-(3-sulfopropyl)butanamido)propane-1-sulfonate]	–	–	–
532 nm	640 nm	CCCCCCN(CCCCCC)c1ccc(/C=C/c2ccc3ccccc3[n+]2C)cc1.[I-] [CS0085]	–	–	–
400 nm	550 nm	C[n+]1c(/C=C/c2ccc3ccccc3c2)ccc2ccccc21.[I-] [CS0087]	–	–	–
480 nm	618 nm	CCCCCCN(CCCCCC)c1ccc(/C=C/c2cc[n+](C34CC5CC(CC(C5)C3)C4)cc2)cc1.[Br-] [CS0096]	–	–	–
468 nm	620 nm	CCCCCCN(CCCCCC)c1ccc(/C=C/c2ccncc2)cc1 [CS0117, (E)-N,N-Dihexyl-4-(2-(pyridin-4-yl)vinyl)aniline]	–	–	–
516 nm	702 nm	CCCCCCN(CCCCCC)c1ccc(/C=C/C=C/c2cc[n+](CCCC(=O)NCCOCCOCCOCCC(=O)OC(C)(C)C)cc2)cc1 [CS0147]	–	–	–
516 nm	702 nm	CCCCCCN(CCCCCC)c1ccc(/C=C/C=C/c2cc[n+](CCC[N+](C)(C)C)cc2)cc1 [CS0155]	–	–	–

Further lines, the molecule ahead of its results:

Compound	Optical Property (in DMSO) Emission [1]	Optical Property (in DMSO) Excitation [1]	shift in melting temperature (apparent Tagg) compared to the controls (HDAC1-Nluc)	shift in apparent Tagg compared to DMSO controls (CDK2-Nluc)	shift in apparent Tagg compared to DMSO controls (Nluc-ABL1)
O=C(CCCCCCNC(=O)c1cnc(N(c2ccccc2)c2ccccc2)nc1)NO [ACY1215]	–	–	significant shift in melting temperature (apparent Tagg)	–	–
Cn1c(NC[C@@H](N)Cc2ccccc2)nc(-c2ccncc2)c(-c2ccc3ccccc3c2)c1=O [AMG548]	–	–	–	did not result in a significant shift in apparent Tagg	did not
CCCCCCN(CCCCCC)c1ccc(/C=C/C=C/c2cc[n+](CCCS(=O)(=O)[O-])cc2)cc1 [CS0024]	516 nm	702 nm	–	–	–
CCCCCCN(CCCCCC)c1ccc(/C=C/c2cc[n+](CCCS(=O)(=O)[O-])c3ccccc23)cc1 [CS0028]	560 nm	680 nm	–	–	–
CCCCCCN(CCCCCC)c1ccc(/C=C/c2cc[n+](CCCC(=O)O)cc2)cc1.[Br-] [CS0036, (E)-1-(3-Carboxypropyl)-4-(4-(dihexylamino)styryl)pyridin-1-ium chloride]	480 nm	624 nm	–	–	–
CCCCCCN(CCCCCC)c1ccc(/C=C/c2cc[n+](CCCC(=O)NCCOCCOCCOCCC(=O)O)cc2)cc1.[Br-] [CS0045, (E)-1-(1-Carboxy-13-oxo-3,6,9-trioxa-12-azahexadecan-16-yl)-4-(4-(dihexylamino)styryl)pyridin-1-ium chloride]	480 nm	622 nm	–	–	–
CCCCCCN(CCCCCC)c1cccc2c(/C=C/c3cc[n+](CCCS(=O)(=O)[O-])cc3)cccc12 [CS0071]	not fluorescent	–	–	–	–
CCCCCCN(CCCCCC)c1ccc(/C=C/c2cc[n+](CCCC(=O)NCCOCCOCCOCCC(=O)OC(C)(C)C)cc2)cc1.[Br-] [CS0100, (E)-4-(4-(Dihexylamino)styryl)-1-(2,2-dimethyl-4,17-dioxo-3,7,10,13-tetraoxa-16-azaicosan-20-yl)pyridin-1-ium chloride]	480 nm	622 nm	–	–	–
CCCCCCN(CCCCCC)c1ccc(/C=C/c2cc[n+](CCCC(=O)OCC)cc2)cc1.[Br-] [CS0101, (E)-4-(4-(Dihexylamino)styryl)-1-(4-ethoxy-4-oxobutyl)pyridin-1-ium bromide]	480 nm	624 nm	–	–	–
CCCCCCN(CCCCCC)c1ccc(/C=C/c2cc[n+](CC)cc2)cc1.[OH-] [CS0112]	480 nm	620 nm	–	–	–
CCCCCCN(CCCCCC)c1ccc(/C=C/c2cc[n+](CCC(F)(F)C(F)(F)C(F)(F)C(F)(F)C(F)(F)C(F)(F)F)cc2)cc1.[I-] [CS0121, (E)-4-(4-(dihexylamino)styryl)-1-(3,3,4,4,5,5,6,6,7,7,8,8,8-tridecafluorooctyl)pyridin-1-iumiodide]	480 nm	620 nm	–	–	–
Nc1ccccc1NC(=O)c1ccc(CNc2nccc(-c3cccnc3)n2)cc1 [Mocetinostat]	–	–	significant shift in melting temperature (apparent Tagg)	–	–
Cc1cn(-c2cc(NC(=O)c3ccc(C)c(Nc4nccc(-c5cccnc5)n4)c3)cc(C(F)(F)F)c2)cn1 [Nilotinib]	–	–	–	did not result in a significant shift in apparent Tagg	–
C[S+]([O-])c1ccc(-c2nc(-c3ccncc3)c(-c3ccc(F)cc3)[nH]2)cc1 (stereo not shown) [SB203580]	–	–	–	did not result in a significant shift in apparent Tagg	did not
